We go through 2 compounds from paper PMC9501633, “Synthesis, Characterisation and Mechanism of Action of Anticancer 3-Fluoroazetidin-2-ones” (Pharmaceuticals, 2022).

The structures appear in SMILES notation.

The subject of assay [1] is MDA-MB-231 cells. Put plainly: AlamarBlue cell viability assay. The class given is cell-based. Conditions: Homo sapiens, MDA-MB-231, 72 h. On the procedure:
The potent 3-fluoro-β-lactam compound 33 synthesised was also evaluated in the triple-negative MDA-MB-231 cell line which lacks expression of the estrogen and progesterone receptors (ER/PR) and the HER2 receptor. […]. Compound 32 was also evaluated in the triple-negative breast cancer cell line Hs578T and its isogenic subclone Hs578T(i)8 (Figure 4C). Hs578Ts(i)8 cells have 2.5-fold more migratory capacity and 3-fold more invasive capacity through the extracellular matrix than the parental cell line (Hs578T) and have 30% more CD44+/CD24-/low cells and in vivo proliferation. […]. […] Cell proliferation for MCF-7 cells was analysed with the AlamarBlue assay (Invitrogen Corp.) as previously described by us. […] Fluorescence results were obtained with a 96-well fluorimeter with excitation at 530 nm and emission at 590 nm with results recorded as percentage viability relative to vehicle control (100%). […]
Figure 4 Antiproliferative activity of 3-fluoro β-lactams on MCF-7, MDA-MB-231, Hs578T and Hs578T isogenic subclone Hs578T(i)8 breast cancer cells and non-tumourigenic HEK-293T cells. […] Cell viability was expressed as a percentage of vehicle control (ethanol 1% (v/v))-treated cells. […] Cell viability was expressed as a percentage of vehicle control (ethanol 1% (v/v))-treated cells and was measured by AlamarBlue assay (average of three independent experiments). […]
(Resazurin is reduced to fluorescent resorufin, in cell work by metabolically active cells.)

The subject of assay [2] is MCF-7 cells. Kind of assay: Annexin V-FITC/PI apoptosis assay (flow cytometry). Type of assay: cell-based, human. The settings on record: 48 h. On the procedure: Among the cell death pathways, apoptosis is very important to maintain cellular homeostasis. However, upon severe and irreparable cellular stress, all cells, including cancer cells, undergo apoptosis. In this work, the Annexin V–FITC/PI double-staining method was used in assessing the development of apoptosis when MCF-7 cells are exposed to compound 33 (0.1 and 0.5 μM for 48 h). MCF-7 cells were first treated with compound 33 for 48 h followed by staining with Annexin V–fluorescein isothiocyanate (FITC)/propidium iodide (PI). Live cells (Annexin V^−/PI^−), early apoptotic cells (Annexin V^+/PI^−), late apoptotic cells (Annexin V+/PI+) and necrotic cells (Annexin V^−/PI^+) can be differentiated by tie technique following flow cytometric analysis (Figure 5). The positive control CA-4 (at 50 nM concentration) induced 34.6% Annexin V-positive apoptotic cells, and the vehicle control used was 0.1% ethanol (v/v).
Apoptotic cell death was monitored by flow cytometry using Annexin V and propidium iodide (PI) as previously described by us. MCF-7 cells were seeded in 6-well plates at a density of 1 × 10^5 cells/mL and treated with either vehicle (0.1% (v/v) EtOH) or β-lactam compound 33 at concentrations 0.1 and 0.5 µM for 48 h. Cells were harvested and prepared for flow cytometric analysis. Cells were washed in 1X binding buffer (20X binding buffer: 0.1 M HEPES, pH 7.4; 1.4 M NaCl; 25 mM CaCl2 diluted in dH2O) and incubated in the dark for 30 min on ice in Annexin V-containing binding buffer [1:100]. Cells were then washed in binding buffer and then re-suspended in PI-containing binding buffer (1:1000). Samples were then analysed with the BD Accuri flow cytometer and Prism software. The resulting cell populations were identified as Annexin V- and PI-negative (Q4, healthy cells), Annexin V-positive and PI-negative (Q3, early apoptosis), Annexin V- and PI-positive (Q2, late apoptosis) and Annexin V-negative and PI-positive (Q1, necrosis). The positive control for induction of cell death was […].
Figure 5 Compound 33 induces apoptosis in MCF-7 breast cancer cells. […] .

For orientation: IC50 means the concentration that gives 50% inhibition. Read a low IC50 as greater potency. `COc1ccc(/C=C\c2cc(OC)c(OC)c(OC)c2)cc1O` [CA-4, combretastatin A-4, reference compound] returned a half-inhibitory concentration (IC50) in assay [1] of 0.043 µM. Further, the viability at 0.05 µM in assay [2] (Homo sapiens, MCF7, MCF-7, 50 nM, read-out: Viable cells) was 61.8%. For the same compound, in assay [2] (MCF-7, 50 nM), the “Annexin V-positive apoptotic cells” value is recorded as 34.6%.

As for `COc1ccc(C2C(F)C(=O)N2c2cc(OC)c(OC)c(OC)c2)cc1F` (stereo not drawn) [Compound 33, 3-Fluoro-4-(3-fluoro-4-methoxyphenyl)-1-(3,4,5-trimethoxyphenyl)azetidin-2-one], the IC50 in assay [1] turned out to be 0.62 µM. For the same compound, the viability at 0.1 µM in assay [2] (Homo sapiens, MCF7, MCF-7, 0.1 μM, read-out: Viable cells) is 84.9%. The viability at 0.5 µM in assay [2] (Homo sapiens, MCF7, MCF-7, 0.5 μM, read-out: Viable cells) worked out at 48.8%. Also, in assay [2] (MCF-7, 0.1 μM), the “apoptosis (early + late)” value is listed as 14.2%, the early apoptotic cells is given as 8.1% and the late apoptotic cells worked out at 6.1%. In assay [2] (MCF-7, 0.5 μM), the “apoptosis (early + late)” value is 45.9%, the early apoptotic cells amounted to 22.1% and the late apoptotic cells is 23.8%.
